Source: patent publication US9346769B2, “Tetrazolones as inhibitors of fatty acid synthase” (Infinity Pharmaceuticals, Inc., priority 2010, dated 2016)

Target: T1, human FASN (Homo sapiens, UniProt P49327)
T1 construct: was purified from SKBR3 cells using procedures modified from those in Jayakumar et al; endogenous in cells; host or cells: SKBR3 human breast cancer cells (ATCC); Endogenous enzyme purified by ammonium sulfate precipitation and a mono Q column
Test: FASN Scintillation Proximity Flashplate Assay
Type: biochemical
Settings: human FASN purified from SKBR3 cells; unstarred symbols
Procedure, shortened: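 Human FASN purified from SKBR3 cells (1 nM final) preincubated with compound 30 min at 37 °C in phosphate buffer pH 7.0, then reacted 2 h at 37 °C with 100 μM acetyl-CoA plus [3H]-acetyl-CoA, 300 μM malonyl-CoA, 2 mM NADPH. Stopped with orlistat; scintillation-proximity CPM gave % inhibition, four-parameter IC50.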

T1 sequence (P49327 whole entry): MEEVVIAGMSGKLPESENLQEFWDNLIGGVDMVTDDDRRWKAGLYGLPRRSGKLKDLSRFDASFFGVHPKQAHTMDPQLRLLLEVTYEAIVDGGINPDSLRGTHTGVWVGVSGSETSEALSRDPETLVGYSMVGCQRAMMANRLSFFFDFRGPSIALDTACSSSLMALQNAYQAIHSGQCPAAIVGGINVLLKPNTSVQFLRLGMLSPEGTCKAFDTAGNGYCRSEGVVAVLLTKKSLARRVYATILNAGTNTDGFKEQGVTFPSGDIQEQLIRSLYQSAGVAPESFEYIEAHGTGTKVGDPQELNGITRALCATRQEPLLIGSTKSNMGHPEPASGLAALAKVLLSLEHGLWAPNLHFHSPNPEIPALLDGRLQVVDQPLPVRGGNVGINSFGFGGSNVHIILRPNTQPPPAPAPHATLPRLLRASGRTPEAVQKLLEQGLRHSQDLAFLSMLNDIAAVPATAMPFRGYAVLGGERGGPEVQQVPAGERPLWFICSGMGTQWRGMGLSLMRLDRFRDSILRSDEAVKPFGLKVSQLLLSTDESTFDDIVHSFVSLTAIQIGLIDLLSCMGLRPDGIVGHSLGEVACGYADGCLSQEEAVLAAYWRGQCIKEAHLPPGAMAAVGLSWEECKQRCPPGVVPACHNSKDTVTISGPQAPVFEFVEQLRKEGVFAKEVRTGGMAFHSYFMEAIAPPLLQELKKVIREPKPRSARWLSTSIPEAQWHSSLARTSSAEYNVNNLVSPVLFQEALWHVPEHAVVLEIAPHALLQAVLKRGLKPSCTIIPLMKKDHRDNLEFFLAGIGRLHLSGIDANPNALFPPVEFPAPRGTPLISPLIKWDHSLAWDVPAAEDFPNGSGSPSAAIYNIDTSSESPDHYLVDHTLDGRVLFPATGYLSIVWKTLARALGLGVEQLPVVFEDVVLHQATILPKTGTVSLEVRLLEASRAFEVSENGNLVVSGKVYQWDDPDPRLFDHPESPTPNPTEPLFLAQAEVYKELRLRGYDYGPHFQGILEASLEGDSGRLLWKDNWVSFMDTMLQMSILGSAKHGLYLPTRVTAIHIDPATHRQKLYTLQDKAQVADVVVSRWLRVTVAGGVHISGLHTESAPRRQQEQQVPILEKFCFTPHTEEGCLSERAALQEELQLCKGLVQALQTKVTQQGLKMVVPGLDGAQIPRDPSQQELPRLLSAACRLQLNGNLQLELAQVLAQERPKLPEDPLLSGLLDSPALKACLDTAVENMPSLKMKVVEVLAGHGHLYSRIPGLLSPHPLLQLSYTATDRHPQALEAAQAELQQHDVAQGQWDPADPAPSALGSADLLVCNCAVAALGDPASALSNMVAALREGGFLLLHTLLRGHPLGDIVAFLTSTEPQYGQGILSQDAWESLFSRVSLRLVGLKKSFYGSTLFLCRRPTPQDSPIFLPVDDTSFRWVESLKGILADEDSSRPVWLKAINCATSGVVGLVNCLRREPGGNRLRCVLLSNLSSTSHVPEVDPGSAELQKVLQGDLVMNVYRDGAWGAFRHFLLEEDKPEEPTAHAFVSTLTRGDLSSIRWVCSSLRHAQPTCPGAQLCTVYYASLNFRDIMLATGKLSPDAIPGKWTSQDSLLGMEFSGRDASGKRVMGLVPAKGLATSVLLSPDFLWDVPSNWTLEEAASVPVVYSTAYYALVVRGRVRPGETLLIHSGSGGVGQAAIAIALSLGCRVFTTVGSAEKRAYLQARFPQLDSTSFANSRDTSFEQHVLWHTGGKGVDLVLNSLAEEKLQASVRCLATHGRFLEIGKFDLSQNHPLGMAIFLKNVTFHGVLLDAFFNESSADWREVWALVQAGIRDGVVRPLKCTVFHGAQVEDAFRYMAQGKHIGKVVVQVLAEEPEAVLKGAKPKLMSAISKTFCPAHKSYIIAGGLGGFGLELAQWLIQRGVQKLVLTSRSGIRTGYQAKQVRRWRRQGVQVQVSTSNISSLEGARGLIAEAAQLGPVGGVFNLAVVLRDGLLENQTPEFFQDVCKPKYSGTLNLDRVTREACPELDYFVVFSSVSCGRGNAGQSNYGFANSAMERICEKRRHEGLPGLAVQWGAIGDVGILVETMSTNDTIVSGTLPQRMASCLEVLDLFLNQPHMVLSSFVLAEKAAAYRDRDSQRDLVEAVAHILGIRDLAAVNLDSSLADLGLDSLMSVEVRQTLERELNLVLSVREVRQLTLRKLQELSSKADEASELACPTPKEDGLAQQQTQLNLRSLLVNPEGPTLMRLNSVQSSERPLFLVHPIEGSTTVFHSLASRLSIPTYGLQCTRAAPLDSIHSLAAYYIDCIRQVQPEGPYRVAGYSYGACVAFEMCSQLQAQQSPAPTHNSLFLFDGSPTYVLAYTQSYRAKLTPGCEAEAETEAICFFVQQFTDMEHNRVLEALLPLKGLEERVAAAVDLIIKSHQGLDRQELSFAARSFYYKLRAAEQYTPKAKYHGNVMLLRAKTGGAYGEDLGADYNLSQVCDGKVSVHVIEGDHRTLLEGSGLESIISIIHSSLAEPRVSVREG

| Structure (SMILES) | IC50 [nM] |
| --- | --- |
| O=C(O)c1ccc(N(C(=O)n2nnn(-c3c(F)cccc3F)c2=O)C2CCCCC2)c(Oc2ccccc2)c1 | < 15 |
| O=C(O)c1ccc(N(C(=O)n2nnn(-c3c(F)cccc3F)c2=O)C2CCCC2)c(Oc2ccccc2)c1 | < 15 |
| COc1cc(Oc2ccccc2)c(N(C(=O)n2nnn(-c3c(F)cccc3F)c2=O)C2CCCCC2)cc1C(=O)O | < 15 |
| O=C(N1Cc2cccc3cccc(c23)C1)n1nnn(-c2c(F)cccc2F)c1=O | 15 to 100 |
| O=C(N1CCCc2cccc(F)c21)n1nnn(-c2c(F)cccc2F)c1=O | < 15 |
| CN(C)c1ccc2c(c1)OC(=O)CC2CC(=O)Nc1cccc2c1CCCN2C(=O)n1nnn(-c2c(F)cccc2F)c1=O (stereo not shown) | 15 to 100 |
| CCN(C(=O)n1nnn(-c2ccccc2Cl)c1=O)C1CCCC1 | 200 to 5000 |
| CCCN(C(=O)n1nnn(-c2ccccc2Cl)c1=O)C1CCCC1 | 200 to 5000 |
| COc1ccc(COC(=O)[C@H]2CC[C@H](N(C(=O)n3nnn(-c4c(F)cccc4OC)c3=O)c3ccccc3)CC2)cc1 | 15 to 100 |
| COc1cccc(F)c1-n1nnn(C(=O)N(c2ccccc2)[C@H]2CC[C@H](C(=O)O)CC2)c1=O | 100 to 200 |
| CN(C)N(C(=O)n1nnn(-c2c(Cl)cccc2Cl)c1=O)C1=CCCC1 | 15 to 100 |
| CN(C)N(C(=O)n1nnn(-c2ccccc2Cl)c1=O)/C1=C/CCCCCC1 | 200 to 5000 |
| CCCN(CC1CC1)C(=O)n1nnn(-c2ccccc2Cl)c1=O | 200 to 5000 |

Next, values leading:

| IC50 [nM] | Structure (SMILES) |
| --- | --- |
| < 15 | COc1ccccc1-n1nnn(C(=O)N(c2ccc(Br)cc2)c2ccc(C(=O)O)cc2)c1=O |
| < 15 | CCCCOc1ccc(C(=O)O)cc1N(CC)C(=O)n1nnn(-c2ccccc2OC)c1=O |
| < 15 | COc1ccc(N(C(=O)n2nnn(-c3c(F)cccc3F)c2=O)C(C)C)cc1C(=O)O |
| < 15 | COc1cccc(F)c1-n1nnn(C(=O)N(c2cc(C(=O)O)ccc2Oc2ccccc2)C(C)C)c1=O |
| < 15 | COc1cc(Oc2ccccc2)c(N(C(=O)n2nnn(-c3c(F)cccc3F)c2=O)C2CCCC2)cc1C(=O)O |
| < 15 | O=C(O)c1ccc(F)c(N(C(=O)n2nnn(-c3c(F)cccc3F)c2=O)C2CCCC2)c1 |
| 200 to 5000 | CN(C)N(C(=O)n1nnn(-c2ccccc2Cl)c1=O)C1CCCC1 |
| 15 to 100 | CN(C)N(C(=O)n1nnn(-c2ccccc2Cl)c1=O)C1=CCCC1 |
| 15 to 100 | CN(C)N(C(=O)n1nnn(-c2ccccc2Br)c1=O)C1=CCCC1 |
| 100 to 200 | CN(C)N(C(=O)n1nnn(-c2ccccc2F)c1=O)C1=CCCC1 |
| 15 to 100 | CN(C)N(C(=O)n1nnn(-c2c(F)cccc2F)c1=O)C1=CCCC1 |
| 100 to 200 | CN(C)N(C(=O)n1nnn(-c2ccccc2Cl)c1=O)C1=CCCCCC1 |
